Measured values: US9382306B2, “Octapeptide compounds derived from somatostatin and the therapeutic use thereof” (IPSEN PHARMA S.A.S., priority 2008, dated 2016)
Bridge positions count the residues as written; N and C are the ends. Square brackets hold non-standard residues; d marks the D form. Peptide text beside a SMILES is read from it. ξ: configuration not given here. d2Nal = N[C@H](Cc1ccc2ccccc2c1)C(=O)O; Thr(3ξ) = CC(O)[C@H](N)C(=O)O

Legend:
[1] = Rheology of solutions/gels of the octapeptides (oscillatory, cone/plane rheometer); assay type: physicochemical; details: 25° C.
Description: The viscous and viscoelastic properties of the solutions/gels of the compounds according to the invention can be studied by rheology according to the operating methods described hereafter.
The measurements are in general carried out using a rheometer of “Control Stress Haake 600” type (Haake, Germany) equipped with a cone/plane measurement geometry, with a cone 20 mm in diameter, an angle of 1 degree and an air gap of 52 microns. The measurement temperature is fixed at 25° C. +/−0.2° C. using a thermostatically-controlled bath but can be adjusted if necessary.
Two complementary types of tests are carried out, on the one hand measurements in static mode and on the other hand measurements in dynamic mode (oscillatory rheology); both are briefly described hereafter. […]
For the dynamic measurements, a shear strain (γ0) […] of sinusoidal type, of known amplitude and frequency is applied to the sample. The resultant sinusoidal shear stress is measured (amplitude τ0). […] In this case, the sine curves recorded for the shear strain and the shear stress having a phase angle difference δ. The values of τ0, γ0 and δ make it possible to access the viscoelastic parameters:
The storage modulus (also called elastic modulus) is a measurement of the elastic energy stored (or restored) per unit volume, whilst the loss modulus is a measurement of the energy dissipated per unit volume. These moduli must be calculated in the linear viscoelastic region (i.e. experimental conditions for which these moduli are independent of the amplitude of the shear stress (strain)). These experimental conditions are in general determined by a so-called “stress sweep” experiment which consists of a measurement of the elastic modulus and the loss modulus as a function of the amplitude of the deformation imposed (for a given frequency, typically 1Hz). In general, in the case of small deformations, G′ and G″ vary very little with the deformation. Then, on passing the yield point, a strong reduction in G′ and a maximum of G″ is observed. This transition delimits the linear viscoelasticity region. When the linear viscoelasticity region is known, other tests can be carried out such as “frequency sweep” measurements consisting of measuring the dependence of G′ and G″ as a function of shear frequency at a fixed deformation amplitude, comprised in the linear viscoelasticity region.
The critical deformation is the deformation from which the elastic modulus dependent on the deformation applied at a constant frequency. For higher deformations, the material looses its viscoelastic properties and tends to become more viscous than elastic. […]

[2] = biological target: T1, somatostatin receptors sub-type 2 (Homo sapiens, UniProt P30874); assay: Affinity for somatostatin receptors: inhibition of [125I-Tyr11]SRIF-14 binding to membranes of transfected CHO-K1 cells; details: competitive inhibition of [125I-Tyr11]SRIF-14 binding, 37° C.
T1 construct: expressed in transfected cells; membrane preparations
T1 sequence (P30874 whole entry): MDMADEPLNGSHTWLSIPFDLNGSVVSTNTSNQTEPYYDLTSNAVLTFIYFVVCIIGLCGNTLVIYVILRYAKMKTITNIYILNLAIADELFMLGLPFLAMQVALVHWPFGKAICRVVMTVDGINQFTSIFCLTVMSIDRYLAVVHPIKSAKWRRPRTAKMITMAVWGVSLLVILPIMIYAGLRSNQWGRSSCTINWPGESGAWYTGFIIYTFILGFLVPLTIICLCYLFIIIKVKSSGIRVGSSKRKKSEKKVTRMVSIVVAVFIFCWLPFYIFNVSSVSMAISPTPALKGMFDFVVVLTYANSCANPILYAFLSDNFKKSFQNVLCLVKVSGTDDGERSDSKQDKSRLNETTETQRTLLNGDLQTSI
Description: The affinity of the compounds of the invention for the somatostatin receptors is determined by measurement of the inhibition of the bond of [125I-Tyr11]SRIF-14 to membrane preparations of transfected CHO-K1 cells.
The CHO-K1 cells expressing in a stable fashion each of the sub-types of somatostatin receptors are collected with 0.5 mM of EDTA and centrifuged at 500 g for 5 minutes at 4° C. The pellet is re-suspended in phosphate buffer (PBS) and centrifuged at 500 g for 5 minutes at 4° C. The pellet is re-suspended in Tris 50 mM buffer at pH 7.4 and centrifuged at 500 g for 5 minutes at 4° C. The cells are lyzed by sonication and centrifuged at 39,000 g for 10 minutes. The pellet is re-suspended in Tris 50 mM buffer at pH 7.4, an aliquot is removed for assaying the proteins and the remainder is centrifuged at 50,000 g for 10 minutes. The membranes obtained in this last pellet are stored at −80° C.
Measurement of the competitive inhibition of the bond of [125I-Tyr11]SRIF-14 (Perkin Elmer) on each of the sub-types of somatostatin receptors is carried out in duplicate in 96-well polypropylene plates. The cell membranes (5 to 20 µg of proteins/well) are incubated with [125I-Tyr11]SRIF-14 (0.05 to 0.1 nM) for 50 to 90 minutes at 37° C. (conditions dependent on the sub-type of receptor) in a HEPES buffer medium 50 mM pH 7.4, comprising 0.2% bovine serum albumin (BSA), MgCl2 5 mM, Trasylol 200 KIU/mL, Bacitracin 0.02 mg/mL, phenylmethylsulphonyl fluoride 0.02 mg/mL.
The bound [125I-Tyr11]SRIF-14 is separated from the free [125I-Tyr11]SRIF-14 by filtration through GF/C glass fibre plates (Unifilter, Perkin Elmer) pre-impregnated with 0.1% polyethylenimine (P.E.I.), using a Filtermate 96 (Perkin Elmer). The filters are washed with Tris-HCl buffer 50 mM, pH 7.4 at 4° C. and the radioactivity present is determined using a counter (TopCount, Perkin Elmer).
The data are analyzed by computer-assisted non-linear regression using XLfit 4.2 (IDBS) software.

## CC(C)[C@@H]1NC(=O)[C@H](CCCCN)NC(=O)[C@@H](Cc2c[nH]cn2)NC(=O)[C@H](Cc2ccc(O)cc2)NC(=O)[C@@H](NC(=O)[C@H](N)Cc2ccc3ccccc3c2)CSSC[C@@H](C(=O)N[C@H](C(N)=O)C(C)O)NC1=O (stereo partly drawn) [Example 3, H-D-2-Nal^1-cyclo(Cys^2-Tyr^3-D-His^4-Lys^5-Val^6-Cys^7)-Thr^8-NH2.2 CH3COOH] (H-[d2Nal]CY[dH]KVC[Thr(3ξ)]-NH2; disulfide 2-7)
[1]; 75 mM
  Critical deformation rheology: Viscosity
  Storage modulus rheology: Viscosity
[1]; 226 mM
  Critical deformation rheology: 360 Pa
  Storage modulus rheology: 150,000 Pa
[2]
  Ki: ≤ 700 nM

## CC(C)[C@@H]1NC(=O)[C@H](CCCCN)NC(=O)[C@@H](Cc2cccc3ccccc23)NC(=O)[C@H](Cc2ccc(O)cc2)NC(=O)[C@@H](NC(=O)[C@H](N)Cc2ccc3ccccc3c2)CSSC[C@@H](C(=O)N[C@H](C(N)=O)C(C)O)NC1=O (stereo partly drawn) [Example 6, H-D-2-Nal^1-cyclo(Cys^2Tyr^3-13-(1-naphthyl)-D-Ala^4-Lys^5-Val^6-Cys^7)-Thr^8-NH2.2 CH3COOH]
[1]; 75 mM
  Critical deformation rheology: 5000 Pa
  Storage modulus rheology: 643,500 Pa
[1]; 226 mM
  Critical deformation rheology: 8500 Pa
  Storage modulus rheology: >2,700,000 Pa
[2]
  Ki: ≤ 5 nM

## CC(C)[C@@H]1NC(=O)[C@H](CCCCN)NC(=O)[C@@H](C)NC(=O)[C@H](Cc2ccc(O)cc2)NC(=O)[C@@H](NC(=O)[C@H](N)Cc2ccc3ccccc3c2)CSSC[C@@H](C(=O)N[C@H](C(N)=O)C(C)O)NC1=O (stereo partly drawn) [Example 4, H-D-2-Nal^1-cyclo(Cys^2Tyr^3-D-Ala^4-Lys^5-Val^6Cys^7)-Thr^8-NH2.2 CH3COOH] (H-[d2Nal]CY[dA]KVC[Thr(3ξ)]-NH2; disulfide 2-7)
[1]; 75 mM
  Critical deformation rheology: 800 Pa
  Storage modulus rheology: 184,000 Pa
[1]; 226 mM
  Critical deformation rheology: 18,600 Pa
  Storage modulus rheology: >2,700,000 Pa
[2]
  Ki: ≤ 5000 nM
